According to US6706686B2, “Inhibition of histone deacetylase as a treatment for cardiac hypertrophy” (The Regents of the University of Colorado, priority 2001, dated 2004):
Entries after “also recorded” stand apart in the source; their conditions may differ.

Columns and labels:
[1] = test system: SERCA, αMyHC, βMyHC promoters in cultured myocytes; assay: CAT reporter assay of myocyte-specific promoters; assay type: cell-based, rat; details: TSA 30 nmol/L
Protocol: FIGS. 2A-D. Over-expression of HDACs repress muscle-specific promoters. Cultured myocytes were transfected for 72 hrs. with expression vectors (2 μg per ˜3×10^5 cells) for Flag-tagged HDAC1, 4, 5 (or its backbone vector) and CAT reporter (5 μg) constructs for SERCA (FIG. 2A), αMyHC (FIG. 2B), βMyHC (FIGS. 2C and 2D) genes, plus SV40-driven secreted alkaline phosphatase (SEAP 1 μg, Clontech). TSA was used at 30 nmol/L, and added just after the transfection. PE […] (20 μmol/L) was added 24 hrs. later and CAT assays performed after an additional 48 hours. Mean data are from n=3 different cultures, and are presented as % of pCMV after normalization to SEAP activity in the media. Over-expression of HDAC was confirmed by Western blot for Flag.
Transfection. Myocytes were transfected using calcium-phosphate co-precipitation with cytomegalovirus promoter driven Flag-tagged expression vectors for HDACs 1, 4, 5 and reporter plasmids carrying the rat promoters for SERCA (3500 bp), αMyHC (2900 bp), or βMyHC (3300 bp) driving expression […] of the chroramphenicol acetyltransferase (CAT) gene. Reporter expression was evaluated after 48 hours as described previously with corection for transfection efficiency with SEAP (BD Biosciences Clontech, Palo Alto, Calif.). Over-expression of HDACs was confirmed by Western blot analyses using anti-Flag M2 antibody (Sigma-Aldrich Corp. St. Louis, Mo.).

[2] = test system: ANF promoter in neonatal rat cardiomyocytes; assay: ANF promoter transcription (luciferase) assay; assay type: cell-based
Protocol: FIGS. 3A-D. HDAC inhibitors block the activation of ANF reporter by phenylphrine without cytotoxicity. Neonatal rat cardiomyocytes were co-transfected with a total of 1 μg of the mouse 3 kb ANF promoter fragment and CMV-Lac Z plasmids. (FIG. 3A) The ANF promoter is minimally active in unstimulated cardiomyocytes. […] (FIG. 3B) Lac Z expression by the constitutive promoter CMV. Treatment with HDAC inhibitors augmented CMV activity with and without phenylephrine co-treatment. (FIGS. 3C and 3D) The graphs show the measurements of adenylate kinase activity remains constant in the medium after […] of culturing cardiomyocytes in the absence or presence of hypertrophic stimulants FBS, PE or ET-1.
Cardiomyocyte isolation. Hearts were harvested from 15-day timed-pregnant female Sprague-Dawley rats (Harlan, Houston, Tex.). After mincing in phosphate-buffered saline, cardiomyocytes were isolated from successive digestion fractions of 0.1% (w/v) Pancreatin (Sigma, St. Louis, Mo.) solution. Fractions were collected; resuspended in plating medium, pooled; and then plated for 2 hours to separate fibroblasts from cardiomyocyte population. Suspended cells were recollected and plated in 6-well dishes at 1×10^6 cells/well for transfection and immunofluorescence experiments, and 2×10^6 cells in 10 cm dishes for RNA analysis.
Transcription assay. Twenty-four hours after plating, cells were transfected with total of 1 μg/ml for 5 hrs using Lipofectamine Plus reagent (Invitrogen, Carlsbad, Calif.). Transfected cells were incubated 24 hrs then treated for an additional 24 hrs. Cells were lysed and their lysates assayed with the Luciferase Assay System (Promega, Madison, Wis.) for luminescence using Lucysoft 2 luminometer (Rosys Anthos, New Castle, Del.).

CC(/C=C/C(=O)NO)=C\[C@@H](C)C(=O)c1ccc(N(C)C)cc1 [TSA, Trichostatin A]
basal SERCA2 promoter activity [1]: increased the basal promoter activities
basal αMyHC promoter activity [1]: increased the basal promoter activities
basal βMyHC promoter activity [1]: not that of βMyHC
activation of ANF promoter by phenylephrine ([2]; phenylephrine 100 μM, TSA 85 nM, NaBut 5 mM, HC-toxin 5 ng/ml): did block the promoter's activation by phenylephrine treatment completely; also recorded: prevented the activation of the ANF promoter
ANF promoter activity, inhibitor alone ([2]; unstimulated cardiomyocytes): did not activate the ANF promoter
